Laboratory results as given in patent US8236510B2, “Protein showing enhanced expression in cancer cells” (Agensys, Inc., priority 1999, dated 2012).
Where two headings read alike, the source gives them in different places.

Key:
[1] = test system: cAMP accumulation in PC3-101P3A11 cells; test: cAMP accumulation in PC3 and PC3-101P3A11 cells (enzyme immunoassay); format: cell-based, human
Description: Olfactory receptors are known to regulate biological responses by activating adenylate cyclase. In order to confirm that 101P3A11 functions as a GPCR and mediates the activation of adenylate cyclase, cAMP accumulation in PC3 and PC3-101P3A11 cells were compared (FIG. 32). Control PC3 and PC3-101P3A11 cells were grown in a low concentration of fetal bovine serum (FBS) for 14 hrs in the presence or absence of pertussis toxin (PTX). The cells were stimulated with 0.1% or 10% FBS, washed in PBS and lysed using a lysis buffer provided by Amersham Pharmacia. Intracellular concentration of cAMP was measured using a commercially available enzyme immunoassay (EIA) according to the manufacturer's recommendations (Amersham Pharmacia). Each assay was performed in duplicate. Calculations of cAMP concentrations were based on OD450 of the standard curve. Expression of 101P3A11 induced a four-fold increase in cAMP accumulation in the absence of stimulation. Treatment with 10% FBS further enhanced cAMP accumulation in PC3-101P3A11 cells to nearly seven-fold over control PC3-neo cells. 101P3A11 mediated cAMP accumulation was inhibited by PTX.
In order to confirm that anti-101P3A11 pAb has a detectable effect on cAMP accumulation, PC3 and PC3-101P3A11 cells were grown in 0.1% FBS and treated with anti-101P3A11 pAb. Cells were analyzed for cAMP content as described in FIG. 32. […]

PC3-101P3A11 cells = test: Proliferation of PC3-101P3A11 and PC3-neo cells; format: cell-based, human; details: PC3-101P3A11 cells, dose dependent
Description: Since adenylate cyclase activity modulates intracellular levels of cAMP and induce downstream signaling events such as activation of protein kinase A, calcium and ERK MAPK signaling (Pierce K. L., et al, Oncogene. 2001, 20: 1532), we determined that PTX, an inhibitor of adenylate cyclase signaling, prevents 101P3A11-mediated ERK phosphorylation along with inhibiting cAMP accumulation (FIG. 33 and FIG. 34). PC3-neo and PC3-101P3A11 cells were grown overnight in 0.1% FBS in media alone or in the presence of pertussis toxin (PTX). Cells were stimulated with 0.1% or 10% FBS (FIG. 33) or 10% FBS, EGF or GRP (FIG. 34). Cells were lysed and analyzed by Western blotting using anti-Phospho-ERK mAb. Expression of 101P3A11 mediated ERK phosphorylation by 10% FBS in PC3 cells, which was inhibited by PTX (FIG. 33 and FIG. 34).
GPCR transmit their signal by activating trimeric G proteins. Once GPCRs are activated, the associated Ga subunit binds GTP, dissociates from the receptor and participates in downstream signaling events (Schild, D., and Restrepo, D. Physiol Rev. 1998, 78:429-66). In order to determine that inhibition of Ga subunits has an effect on 101P3A11 mediated cell growth, the effect of two Ga inhibitors on the proliferation of 3T3-101P3A11 cells was investigated. Control 3T3 and 3T3-101P3A11 cells were grown in the presence or absence of suramin or its derivative NF 449 (Sigma). Cells were analyzed for proliferation 72 hours later (FIG. 35). The experiment was performed in triplicate. […] This response was 101P3A11 specific as suramin and NF449 had no effect on the proliferation of control 3T3 cells. Similarly, inhibition of G protein activation by suramin and NF449 in PC3 cells inhibits the proliferation of PC3-101P3A11 cells grown in 5% FBS (Figure M4). […] This ERK phosohorylation and activation was inhibited by suramin and NF449 in PC3-101P3A11 and 3T3-101P3A11 cells. ERK phosphorylation was inhibited in a dose dependent manner in PC3-101P3A11 cells treated with suramin. […]

pertussis toxin [PTX]
inhibition of 101P3A11 mediated cAMP accumulation [1]: partially inhibited
inhibition of 101P3A11 mediated cAMP accumulation ([1]; listed as pertussis toxin): inhibited
inhibition of proliferation (PC3-101P3A11 cells): inhibited
